Laboratory results: patent publication US20210369615A1, “SOLID ORAL FORMULATIONS OF AMPHOTERICIN B” (iCo Therapeutics Inc., priority 2018, published 2021)
Several values for one entry are separate records, joined by “and”; a condition that tells them apart may be missing. Identical values can stand only once.

Assay: Stability study: related substances (% area) after storage
Type: physicochemical
Procedure: A stability study was initiated for Formulation 1A and Formulation 2A. The capsules were packaged in 30 cc HDPE bottles with induction sealed PP caps and the bottles were stored under ICH stability conditions in humidity chambers at 25° C./60% RH and under accelerated conditions, 40° C./75% RH. The capsules were stored at 4-8° C. directly after preparation until they were placed into the stability chambers. […]
Another stability study was initiated for Formulation 5A. The capsules were packaged as per Formulation 1A and Formulation 2A and store under the same conditions.
An Amphotericin B/TPGS/Peceol/Gelucire 44/14 semi-solid lipid based formulation in hard shell capsule was prepared (Formulation 5A) and stored under ICH controlled stability conditions. […] The dissolution profile however decreased (Table 23 and FIG. 9). As indicated before, this behavior could be a result a recrystallization or aggregation of the AmpB.

C[C@@H]1[C@H](O)[C@@H](C)/C=C/C=C/C=C/C=C/C=C/C=C/C=C/[C@H](O[C@@H]2O[C@H](C)[C@@H](O)[C@H](N)[C@@H]2O)C[C@@H]2O[C@](O)(C[C@@H](O)C[C@@H](O)[C@H](O)CC[C@@H](O)C[C@@H](O)CC(=O)O[C@H]1C)C[C@H](O)[C@H]2C(=O)O [AmpB (Corealis lot drawing 729)]
Related Substances, Total % area (T = 0): 7.67 % area
Related Substances, individual peak % area (T = 0, individual peaks ≥ 0.10%, RRT given): 0.54 % area and 0.12 % area (2×) and 0.32 % area and 0.33 % area and 0.24 % area and 0.60 % area and 0.31 % area and 0.65 % area and 0.69 % area and 0.30 % area and 1.00 % area and 1.47 % area and 0.82 % area and 0.14 % area
Related Substances, Total % area (T = 1 month 40° C./75% RH): 7.71 % area
Related Substances, individual peak % area (T = 1 month 40° C./75% RH, individual peaks, RRT): 0.79 % area and 0.13 % area and 0.57 % area and 0.16 % area and 0.32 % area and 0.33 % area and 0.24 % area and 0.59 % area and 0.31 % area (2×) and 0.11 % area and 0.62 % area and 0.69 % area and 1.00 % area and 1.52 % area
Related Substances, Total % area (T = 3 months 25° C./60% RH): 7.38 % area
Related Substances, individual peak % area (T = 3 months 25° C./60% RH, individual peaks, RRT): 0.14 % area (2×) and 0.78 % area and 0.15 % area (3×) and 0.48 % area and 0.35 % area and 0.22 % area and 0.54 % area and 0.25 % area and 0.57 % area and 0.77 % area and 0.13 % area and 0.16 % area and 1.03 % area and 1.37 % area
Related Substances, Total % area (T = 6 months 25° C./60% RH): 7.18 % area
Related Substances, individual peak % area (T = 6 months 25° C./60% RH, individual peaks, RRT): 0.12 % area and 0.86 % area and 0.14 % area (2×) and 0.52 % area and 0.64 % area and 0.20 % area and 0.71 % area (2×) and 0.56 % area and 0.10 % area and 0.15 % area and 1.01 % area and 1.32 % area
Related Substances, Total % area (T = 6 months 40° C./75% RH): 7.32 % area
